Consider six compounds from PMC10537354, “Pyrenebutyrate Enhances the Antibacterial Effect of Peptide-Coupled Antisense Peptide Nucleic Acids in Streptococcus pyogenes” (Microorganisms, 2023).

Assay [1] has as its system S. pyogenes serotype M49 strain 591. The assay is described as follows: Bacterial killing assay, S. pyogenes. It counts as cell-based, Streptococcus pyogenes. Particulars: 6 h; for log CFU reduction: S. pyogenes M49 591, 5 µM CPP–PNA, n = 5. The protocol:
(§1) S. pneumoniae serotype 4 strain TIGR4: after culturing, S. pneumoniae serotype 4 strain TIGR4 was diluted to approximately 10^5 CFU/mL in phosphate-buffered saline (PBS)/THY (95%/5%). S. pyogenes serotype M49 strain 591: An overnight culture of S. pyogenes serotype M49 strain 591 was diluted to approximately 10^5 CFU/mL in PBS/BHI (70%/30%). An amount of 400 µL of the respective bacterial suspension was transferred to a 2 mL polypropylene reaction tube. 4-(1-pyrenyl)-butyric acid (Merck, Darmstadt, Germany) was dissolved to 1 M in DMSO. The solution was stored in the dark and further dilution steps were performed in PBS and 3% DMSO. An amount of 50 µL PyB in PBS/DMSO was added to the bacterial suspension at a final concentration of 50–400 µM and pre-incubated for 10 min at 37 °C and 7 rpm (Rotor SB3, Stuart, Staffordshire, UK). An amount of 50 µL PBS served as a mock control. Following pre-incubation, 50 µL of CPP–PNA solution was added to a final concentration of 5–10 µM or as indicated. An amount of 50 µL molecular grade H2O served as a mock control. The reaction tubes were incubated for another 6 h at 37 °C and 7 rpm. Killing kinetics were observed over 12 h. Samples were collected at time points of 2–12 h following addition of CPP–PNAs, and bacteria were plated on BHI solid medium following serial dilution. Agar plates were incubated for 24 h at 37 °C under a 5% CO2 atmosphere and CFUs were counted. The bacterial count at the beginning of the experiment was 1–3 × 10^5 CFU/mL. Each experiment was conducted at least three times in independent biological replicates.

Assay [2] has as its system S. pneumoniae serotype 4 strain TIGR4. The assay is described as follows: Bacterial killing assay, S. pneumoniae. It counts as cell-based, Streptococcus pneumoniae. The settings on record: for Significance of the effect of PyB pre-treatment on antimicrobial efficacy (CFU reduction): S. pneumoniae TIGR4, 10 µM CPP–PNA, 200 µM PyB 10 min pre-treatment vs none, one-way ANOVA; for Change of antibacterial activity in the presence of PyB (non-significant trend): S. pneumoniae TIGR4, 200 µM PyB pre-treatment, related to proportion of positively charged residues of the CPP; for log CFU reduction: S. pneumoniae TIGR4, CPP-anti-gyrA PNA (10 µM in this experiment), without PyB. The protocol: as §1, with “The bacterial count at the beginning of the experiment was 1–3 × 10^5 CFU/mL.” left out

For assay [3], the system named is S. pyogenes serotype M49 strain 591. As to the kind of experiment: In vitro time killing assay (killing kinetics over 12 h). It counts as cell-based, Streptococcus pyogenes. The settings on record: n = 3. On the procedure: as §1
Therefore, the kinetics of the antimicrobial activity of K8-conjugated anti-gyrA PNA in the presence of PyB were studied in an in vitro time killing assay in S. pyogenes. Bacteria were treated with 2.5 or 5 μM CPP-antisense PNAs or scrambled control PNAs (Figure 3) with or without pre-treatment with 100 µM PyB. Samples were collected at 2, 4, 6, and 12 h following antisense treatment. CFUs per milliliter were determined by plating of serial dilutions and plotted over time. Untreated bacteria grew by 1–1.5 log CFU over the course of the experiment. […] Following treatment with 2.5 µM K8-conjugated scPNA, no reduction in bacterial counts was observed throughout the experiment. Upon treatment with 5 µM K8-conjugated scPNA, growth was reduced by 0.6 log CFU in comparison to the untreated control, indicating an inhibitory effect of the CPP under these conditions. Overall, pre-treatment with PyB enhanced the activity of K8-anti-gyrA PNA and allowed the eradication of S. pyogenes in vitro.

On to `O=C(O)CCCc1ccc2ccc3cccc4ccc1c2c34` [PyB, 4-(1-pyrenyl)-butyric acid, reference compound], for which the “Toxicity of PyB (CFU/mL compared to untreated control)” value in assay [1] (S. pyogenes 591, 5 × 10^5 CFU/mL, PyB alone 50–200 µM, stated up to 200 µM, n = 4) is reported as “No significant toxicity”; in assay [2] (S. pneumoniae TIGR4, 8 × 10^5 CFU/mL, PyB alone 50–400 µM, 6 h, stated up to 400 µM, n = 4) it was “unaffected”. Further, the “Viable counts after treatment with PyB” value in assay [1] (S. pyogenes, 200 µM PyB alone, n = 4) was “decreased slightly”.

With “KKKKKKKK-eg-attagactgt [K8-anti-gyrA scPNA, Oligolysin (K8) coupled to scrambled control PNA attagactgt, S. pyogenes]”, the “Reduction in bacterial counts throughout the experiment” value in assay [3] (2.5 µM scrambled control, 12 h) is “no reduction”. In addition, in assay [3] (5 µM scrambled control, 12 h course), the “Growth reduction in comparison to the untreated control” value is 0.6 log CFU.

On to “KKKKKKKK-eg-tgcatttaag [K8-anti-gyrA PNA, Oligolysin (K8) coupled to anti-gyrA PNA tgcatttaag, S. pyogenes]”, for which the “log CFU reduction” value in assay [1] (after pre-treatment with 100 µM PyB for 10 min) came out at 4.8 log CFU; in assay [1] (without PyB pre-treatment, PBS/BHI (70%/30%)), 3.7 log CFU. The “Time until clearance of S. pyogenes CFUs” value in assay [3] (5 µM, after pre-treatment with 100 µM PyB) was 12 h. For the same compound, in assay [3] (2.5 or 5 µM, without PyB, 12 h), the “Eradication of S. pyogenes during the course of the assay” value is listed as “not eradicated”. Moreover, the “Viable bacteria over time” value in assay [3] (2.5 or 5 µM, without PyB, samples at 2, 4, 6, 12 h) was “constant decrease”.

“RQIRIWFQNRRMRWRR-eg-tgcattaata [PenArg-anti-gyrA PNA, PenArg coupled to anti-gyrA PNA tgcattaata, S. pneumoniae]”: in assay [2] (6 h), the “Significance of the effect of PyB pre-treatment on antimicrobial efficacy (CFU reduction)” value (“Significance of the effect … (CFU reduction)” below) is “no significant effect” and the “log CFU reduction” value is recorded as 3.3 log CFU. Also, the “Change of antibacterial activity in the presence of PyB (non-significant trend)” value (from here on “Change … (non-significant trend)”) in assay [2] was “not enhanced”.

Turning to “RRRRRRRRR-eg-tgcattaata [R9-anti-gyrA PNA, R9 coupled to anti-gyrA PNA tgcattaata, S. pneumoniae]”, in assay [2] (6 h), the “Significance of the effect … (CFU reduction)” value was “no significant effect” and the “log CFU reduction” value was 4 log CFU. Further, the “Change … (non-significant trend)” value in assay [2] is “slightly increased”.

As for “RXRRXRRXRRXRXB-eg ^1 -tgcatttaag [(RXR)4XB-anti-gyrA PNA, (RXR)4XB coupled via eg linker to anti-gyrA PNA tgcatttaag, S. pyogenes]”, the “Significance of the effect … (CFU reduction)” value in assay [2] (6 h) is listed as “did not significantly enhance”. Moreover, the “Change … (non-significant trend)” value in assay [2] is on record as “not enhanced”.
